Test results: PubChem BioAssay (NCI)
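A five-concentration, 48-hour dose response in 96-well plates underlies each endpoint, interpolated linearly between surrounding concentrations. TGI: concentration producing complete growth inhibition.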

Tests used:
Assay in all cases: NCI tumour cell line growth inhibition, 48 h
[1] = test system: 786-0 renal
[2] = test system: SR leukemia
[3] = test system: K-562 leukemia
[4] = test system: ACHN renal
[5] = test system: SF-539 CNS
[6] = test system: CAKI-1 renal
[7] = test system: MCF7 breast
[8] = test system: MDA-N
[9] = test system: SK-MEL-2 melanoma
[10] = test system: NCI-H460 lung
[11] = test system: SW-620 colon
[12] = test system: A498 renal
[13] = test system: SNB-19 CNS
[14] = test system: NCI-H522 lung
[15] = test system: HCC-2998 colon
[16] = test system: SF-295 CNS
[17] = test system: SK-OV-3 ovarian
[18] = test system: UO-31 renal
[19] = test system: SK-MEL-28 melanoma
[20] = test system: HT29 colon
[21] = test system: HCT-15 colon
[22] = test system: OVCAR-4 ovarian
[23] = test system: CCRF-CEM leukemia
[24] = test system: HOP-62 NSCLC
[25] = test system: MALME-3M melanoma
[26] = test system: RPMI-8226 leukemia
[27] = test system: MDA-MB-435
[28] = test system: SK-MEL-5 melanoma
[29] = test system: UACC-257 melanoma
[30] = test system: NCI/ADR-RES ovarian
[31] = test system: SF-268 CNS
[32] = test system: PC-3 prostate
[33] = test system: RXF 393 renal
[34] = test system: NCI-H23 lung
[35] = test system: OVCAR-5 ovarian
[36] = test system: KM12 colon
[37] = test system: MDA-MB-231 breast
[38] = test system: TK-10 renal
[39] = test system: OVCAR-8 ovarian
[40] = test system: SN12C renal
[41] = test system: UACC-62 melanoma
[42] = test system: U251 CNS
[43] = test system: HS 578T breast
[44] = test system: SNB-75 CNS
[45] = test system: HCT-116 colon
[46] = test system: A549 NSCLC
[47] = test system: COLO 205 colon
[48] = test system: NCI-H226 lung
[49] = test system: OVCAR-3 ovarian
[50] = test system: LOX IMVI melanoma
[51] = test system: DU-145 prostate
[52] = test system: HOP-92 NSCLC
[53] = test system: M14 melanoma
[54] = test system: MOLT-4 leukemia
[55] = test system: T-47D breast
[56] = test system: BT-549 breast
[57] = test system: IGROV1 ovarian
[58] = test system: EKVX NSCLC
[59] = test system: HL-60(TB) leukemia

Measured: TGI

COc1ccc2c3c([nH]c2c1)[C@H]1C[C@H]2[C@H](C[C@@H](O)[C@H](OC)[C@H]2C(=O)O)CN1CC3
not listed: [59]
> 100 µM: all other assays above

CC(C)(C)c1ccc(C(O)(c2ccc(C(C)(C)C)cc2)c2ccc(C(C)(C)C)cc2)cc1
not listed: [29] | [33] | [52]
> 100 µM: all other assays above

O=C(O)c1cc2c(cc1CC(Cc1ccccc1)C(=O)O)CCC2 (stereo unspecified)
not listed: [41] | [52]
> 100 µM: all other assays above

CN(NC(=O)/C(=C/C=C/c1ccccc1)NC(=O)c1ccccc1)C1=C(Cl)C(=O)[N+](c2ccccc2)=CC1
44.9 µM: [49]
38 µM: [5]
32.9 µM: [27]
40.2 µM: [42] | [53]
27.4 µM: [28]
69.6 µM: [44]
40.3 µM: [39]
37.1 µM: [19]
46.8 µM: [57]
64 µM: [22]
53.8 µM: [30] | [33]
81 µM: [4]
61.5 µM: [14]
38.8 µM: [55]
93.8 µM: [46]
33.7 µM: [47]
80.1 µM: [52]
70.4 µM: [31]
62.8 µM: [21]
32.3 µM: [50]
37.5 µM: [8] | [37]
66 µM: [40]
80.2 µM: [13]
63.2 µM: [26]
81.5 µM: [16]
37.7 µM: [48]
81.9 µM: [54]
66.6 µM: [2]
33.8 µM: [11]
49.6 µM: [56]
49.9 µM: [3]
70.9 µM: [9]
39.2 µM: [1]
36.3 µM: [7]
34 µM: [36]
45.7 µM: [45]
51.5 µM: [24]
not listed: [15] | [23] | [41] | [59]
> 100 µM: all other assays above
